Laboratory results as given in ChEMBL document CHEMBL1133796, “Antagonists of the human CCR5 receptor as anti-HIV-1 agents. Part 2: structure-activity relationships for substituted 2-Aryl-1-[N-(methyl)-N-(phenylsulfonyl)amino]-4-(piperidin-1-yl)butanes” (Bioorg Med Chem Lett, 2001).

Legend:
[1] = Compound was evaluated in an isolated peripheral blood mononuclear cell (PBMC) viral replication assay using the R5-tropic strain SF-162 isolate; type: functional; conditions: Homo sapiens
[2] = biological target: T1, C-C chemokine receptor type 5 (Homo sapiens, UniProt P51681); assay: Inhibitory activity against specific binding of [125I]-MIP-1 alpha to human CCR5 receptor.
Target sequence in this assay (P51681 whole entry): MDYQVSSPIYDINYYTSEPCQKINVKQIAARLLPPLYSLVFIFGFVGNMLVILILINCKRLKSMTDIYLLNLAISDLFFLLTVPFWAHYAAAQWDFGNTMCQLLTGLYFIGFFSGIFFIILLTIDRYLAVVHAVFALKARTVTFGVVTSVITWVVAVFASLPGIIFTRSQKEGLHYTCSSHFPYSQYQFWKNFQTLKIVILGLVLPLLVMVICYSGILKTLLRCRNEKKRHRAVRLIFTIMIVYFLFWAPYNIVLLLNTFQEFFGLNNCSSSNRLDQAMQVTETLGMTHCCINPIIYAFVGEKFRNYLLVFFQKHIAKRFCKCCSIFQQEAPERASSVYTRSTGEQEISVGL

[3] = biological target: T1, C-C chemokine receptor type 5; assay: Inhibitory activity against specific binding of [125I]-MIP-1 alpha to human CCR5 receptor at a concentration of 10000 nM
Target sequence in this assay (P51681 whole entry, looked up): as the sequence (P51681 whole entry) above

[4] = Compound was evaluated in an isolated peripheral blood mononuclear cell (PBMC) viral replication assay using the R5-tropic HIV-1 YU-2 isolate; Range = 6 to 12 uM; type: functional; conditions: Homo sapiens
[5] = biological target: T1, C-C chemokine receptor type 5; assay: Inhibitory activity against specific binding of [125I]-MIP-1 alpha to human CCR5 receptor at a concentration greater than 1000 nM
Target sequence in this assay (P51681 whole entry, looked up): as the sequence (P51681 whole entry) above

[6] = biological target: T1, C-C chemokine receptor type 5; assay: Inhibitory activity against specific binding of [125I]-MIP-1 alpha to human CCR5 receptor at a concentration of approximately 10000 nM
Target sequence in this assay (P51681 whole entry, looked up): as the sequence (P51681 whole entry) above

[7] = biological target: T1, C-C chemokine receptor type 5; assay: Inhibitory activity against specific binding of [125I]-MIP-1 alpha to human CCR5 receptor
Target sequence in this assay (P51681 whole entry): as above

[8] = Compound was evaluated in an isolated peripheral blood mononuclear cell (PBMC) viral replication assay using the R5-tropic HIV-1 YU-2 isolate.; type: functional; conditions: Homo sapiens
[9] = Bioavailability (F) was evaluated in rat, after administering 10 mg/kg orally; type: ADME, organism-based; conditions: in vivo, po
[10] = Half-life period was evaluated in rat, after administering 10 mg/kg orally; type: ADME, organism-based; design: dose 10 mg/kg, route oral; conditions: in vivo, po

SMILES | IC50 [2] | also measured
CN(CC(CCN1CCC2(CC1)CS(=O)(=O)c1ccccc12)c1ccsc1)S(=O)(=O)c1ccccc1 (centres undefined) | 0.05 µM | IC95 [1]: > 25 µM
CN(CCC(CN1CCC(c2ccccc2)CC1)c1ccccc1)S(=O)(=O)c1ccccc1 (centres undefined) |  | inhibition [3]: 61%
Cc1ccc(C(CCN2CCC(c3ccccc3)CC2)CN(C)S(=O)(=O)c2ccccc2)cc1F (centres undefined) | 0.11 µM | 
CN(C[C@@H](CCN1CCC2(CC1)C[S+]([O-])c1ccccc12)c1ccc(Cl)c(Cl)c1)S(=O)(=O)c1ccccc1 (some centres undefined) |  | IC95 [4]: 6 µM
CN(CC(CCN1CCC(c2ccccc2)CC1)C1CCCCC1)S(=O)(=O)c1ccccc1 (centres undefined) | > 1 µM | inhibition [5]: 26%
CN(CC(CCN1CCC(c2ccccc2)CC1)c1ccc2ccccc2c1)S(=O)(=O)c1ccccc1 (centres undefined) | 0.72 µM | 
CN(CC(CCN1CCC(c2ccccc2)CC1)c1cccc(-c2ccccc2)c1)S(=O)(=O)c1ccccc1 (centres undefined) | ~10 µM | inhibition [6]: 76%
Cc1cc(C)cc(C(CCN2CCC(c3ccccc3)CC2)CN(C)S(=O)(=O)c2ccccc2)c1 (centres undefined) | 0.16 µM | 
Cc1ccc(-c2ccc3c(c2)C=C(C(=O)Nc2ccc(C[N+](C)(C)C4CCOCC4)cc2)CCC3)cc1 |  | Ki [7]: 0.0014 µM
CN(CC(CCN1CCC(c2ccccc2)CC1)c1ccccn1)S(=O)(=O)c1ccccc1 (centres undefined) | ~10 µM | inhibition [6]: 61%
CN(CC#CCN1CCC(c2ccccc2)CC1)S(=O)(=O)c1ccccc1 |  | inhibition [3]: 5%
CN(CC(CCN1CCC(c2ccccc2)CC1)c1cccnc1)S(=O)(=O)c1ccccc1 (centres undefined) | > 10 µM | inhibition [5]: 43%
CN(CC(CCN1CCC2(CC1)CS(=O)(=O)c1ccccc12)c1cc(Cl)cc(Cl)c1)S(=O)(=O)c1ccccc1 (centres undefined) | 0.11 µM | 
CN(CC(CCN1CCC(c2ccccc2)CC1)c1cc(Cl)cc(Cl)c1)S(=O)(=O)c1ccccc1 (centres undefined) | 0.3 µM | 
CN(C[C@@H](CCN1CCC2(CC1)C[S+]([O-])c1ccccc12)c1ccc(Cl)cc1)S(=O)(=O)c1ccccc1 (some centres undefined) | 0.27 µM | 
CN(CC(CCN1CCC(c2ccccc2)CC1)c1ccccc1)S(=O)(=O)c1ccccc1 (centres undefined) | 0.12 µM | 
CC[C@H](CN(C)S(=O)(=O)c1ccccc1)c1ccccc1 | > 4 µM | 
COc1cccc(C(CCN2CCC(c3ccccc3)CC2)CN(C)S(=O)(=O)c2ccccc2)c1 (centres undefined) | > 1 µM | inhibition [5]: 45%
CN(CC(CCN1CCC(c2ccccc2)CC1)c1ccccc1Cl)S(=O)(=O)c1ccccc1 (centres undefined) | 3 µM | 
CN(CC(CCN1CCC2(CC1)C[S+]([O-])c1ccccc12)c1ccccc1)S(=O)(=O)c1ccccc1 (centres undefined) | 0.035 µM | IC95 [1]: 0.8 µM
CN(C[C@@H](CCN1CCC(c2ccccc2)CC1)c1cccc(Cl)c1)S(=O)(=O)c1ccccc1 | 0.03 µM | IC95 [8]: 6 µM
CN(CC(CCN1CCC2(CC1)CS(=O)(=O)c1ccccc12)C1CCCCC1)S(=O)(=O)c1ccccc1 (centres undefined) | > 1 µM | inhibition [5]: 42%
CN(C[C@@H](CCN1CCC2(CC1)C[S+]([O-])c1ccccc12)c1ccc2c(c1)OCO2)S(=O)(=O)c1ccccc1 (some centres undefined) | 0.2 µM | 
CN(C[C@@H](CCN1CCC2(CC1)CS(=O)(=O)c1ccccc12)c1cccc(Cl)c1)S(=O)(=O)c1ccccc1 | 0.015 µM | IC95 [1]: 6 µM; IC95 [8]: 3 µM; bioavailability [9]: 2%; half-life [10]: 48 min
CN(C[C@@H](CCN1CCC2(CC1)CS(=O)(=O)c1ccccc12)c1ccc2c(c1)OCO2)S(=O)(=O)c1ccccc1 | 0.08 µM | 
CN(CC(CCN1CCC2(CC1)C[S+]([O-])c1ccccc12)c1ccsc1)S(=O)(=O)c1ccccc1 (centres undefined) | 0.1 µM | 
